Experimental data from patent publication US5449612A, “Process for identifying candida by means of chromogenic substances” (Serbio, priority 1990, dated 1995).
Non-standard residues stand in square brackets, D forms with d. Residues, ends and D or L forms follow the SMILES beside them. *: point of attachment. pNA = O=[N+]([O-])c1ccc(N*)cc1; Cbz = O=C(OCc1ccccc1)*

Tests used:
[1] = system: Candida albicans; test: Tests on substrates against Candida albicans, colour reading on buffered gelose; assay type: cell-based; details: Table I; for Reading at 24 h: medium pH 6.0, YNB, glucose, agar, gentamycin, coloration or fluorescence
[2] = system: Candida tropicalis; test: Tests on substrates against Candida tropicalis, colour reading on buffered gelose; assay type: cell-based; details: Table II; medium pH 6.0, YNB, glucose, agar, gentamycin

Molecule | Reading at 24 h [1] | Reading at 24 h [2] | Specificity: nonspecific for the strains of Candida albicans [1] | further results
CC(=O)O.N=C(N)NCCC[C@H](NC(=O)OCc1ccccc1)C(=O)Nc1ccc([N+](=O)[O-])cc1 [Cbo-L-Arg-pNA.AcOH] | - |  |  | 
O=C(Nc1ccc([N+](=O)[O-])cc1)[C@@H]1CCCN1C(=O)OCc1ccccc1 [Cbo-L-Pro-pNA] | - |  |  | 
N=C(N)NCCC[C@H](NC(=O)[C@H]1CCCN1C(=O)[C@H]1CCCN1)C(=O)Nc1ccc([N+](=O)[O-])cc1 [H-D-Pro-D-Pro-L-Arg-pNA.2AcOH] (H-[dP]-[dP]-Arg-pNA) |  | - |  | 
N=C(N)NCCC[C@H](NC(=O)[C@@H]1CCCN1C(=O)[C@H]1CCCN1)C(=O)Nc1ccc([N+](=O)[O-])cc1 [H-D-Pro-L-Pro-L-Arg-pNA.2AcOH] (H-[dP]-Pro-Arg-pNA) |  | ++++ |  | 
CC(=O)O.O=C(Nc1ccc([N+](=O)[O-])cc1)[C@H]1NCCC1O (stereo partly drawn) [H-L-3Hyp-pNA.AcOH] | +++ |  | (a) | 
CC(=O)O.O=C(Nc1ccc([N+](=O)[O-])cc1)[C@@H]1CC(O)CN1 (stereo partly drawn) [H-L-4Hyp-pNA.AcOH] | +++ |  | (a) | 
C[C@H](N)C(=O)N[C@@H](C)C(=O)N1CCC[C@H]1C(=O)Nc1ccc([N+](=O)[O-])cc1 [H-L-Ala-L-Ala-L-Pro-pNA.AcOH] (H-Ala-Ala-Pro-pNA) |  |  | (a) | Reading at 48 h ([1]; same medium, reading at 48 h): +
C[C@H](N)C(=O)N1CCC[C@H]1C(=O)Nc1ccc([N+](=O)[O-])cc1 [H-L-Ala-L-Pro-pNA.AcOH] (H-Ala-Pro-pNA) | ++ |  | (a) | 
CC(=O)O.CC(=O)O.N=C(N)NCCC[C@H](N)C(=O)Nc1ccc([N+](=O)[O-])cc1 [H-L-Arg-pNA.2AcOH] | +++ |  | (a) | 
CC(=O)O.O=C(Nc1ccc2ccccc2c1)[C@@H]1C[C@@H](O)CN1 [H-L-Hyp-NA.AcOH, reference compound] | ++ |  | (a) | 
CC(C)C[C@H](N)C(=O)NCC(=O)N[C@@H](CCCNC(=N)N)C(=O)Nc1ccc([N+](=O)[O-])cc1 [H-L-Leu-Gly-L-Arg-pNA.2AcOH] (H-Leu-Gly-Arg-pNA) |  | ++++ |  | 
CC(=O)O.COc1cc(NC(=O)[C@@H]2CCCN2)cc2ccccc12 [H-L-Pro-(4-MeO)NA.AcOH, reference compound] | - |  |  | 
CC(=O)O.O=C(Nc1ccc2cc(Br)ccc2c1)[C@@H]1CCCN1 [H-L-Pro-(6-Br)NA.AcOH, reference compound] | + |  | (a) | 
N=C(N)NCCC[C@H](NC(=O)[C@@H]1CCCN1)C(=O)Nc1ccc([N+](=O)[O-])cc1 [H-L-Pro-L-Arg-pNA.2AcOH] (H-Pro-Arg-pNA) |  | ++ |  | 
CC(=O)O.O=C(Nc1ccc2ccccc2c1)[C@@H]1CCCN1 [H-L-Pro-NA.AcOH, reference compound] | ++ |  | (a) | 
CC(=O)O.COCCOCCOC(=O)NC(CCCN=C(N)N)C(=O)Nc1ccc([N+](=O)[O-])cc1 [MeO(CH2 CH2 O)2 CO-L-Arg-pNA.AcOH] | - |  |  | 
O=C(NCC(=O)N1CCC[C@H]1C(=O)Nc1ccc([N+](=O)[O-])cc1)OCc1ccccc1 [Z-Gly-L-Pro-pNA] (Cbz-Gly-Pro-pNA) | - |  |  | 
CC(=O)O.NCCCC[C@H](NC(=O)OCc1ccccc1)C(=O)Nc1ccc([N+](=O)[O-])cc1 [Z-L-Lys-pNA.AcOH] | - |  |  | 
H-D-Pro-L-Hyp-L-Arg-pNA.2AcOH |  | +++ |  | 
H-L-Hyp-L-Arg-pNA.2AcOH |  | ++ |  | 
H-L-Hyp-L-Hyp-L-Arg-pNA.2AcOH |  | +++ |  | 
H-L-Hyp-L-Lys-pNA.2AcOH |  | ++ |  | 
H-L-Hyp-L-Pro-L-Arg-pNA.2AcOH |  | +++ |  | 
H-L-ONC-L-Pro-L-Arg-pNA.AcOH |  | +++ |  | 
Z-L-Ala-L-Pro-pNA | - |  |  | 
